Inhibition data for one compound are collected here from paper PMC6934184, “Selective DNA-PKcs inhibition extends the therapeutic index of localized radiotherapy and chemotherapy” (The Journal of Clinical Investigation, 2019).

Molecules are shown by their SMILES.

The assay concerns the target T1, PRKACG (PRKAC gamma) (Homo sapiens, UniProt P22612).
T1 construct: purchased Thermo Fisher Scientific (Life Technologies) SelectScreen
Description: SelectScreen LanthaScreen. As to conditions: read-out: % displacement. Format: binding. In a few lines:
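NU5455 was profiled across the SelectScreen Broad panel of kinase activity and binding assays. Z'LYTE reactions such as CSF1R ran at apparent Km ATP, while the Adapta CAMK1 assay used ATP listed as 10. Values are given as percent.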

T1 sequence (P22612 whole entry): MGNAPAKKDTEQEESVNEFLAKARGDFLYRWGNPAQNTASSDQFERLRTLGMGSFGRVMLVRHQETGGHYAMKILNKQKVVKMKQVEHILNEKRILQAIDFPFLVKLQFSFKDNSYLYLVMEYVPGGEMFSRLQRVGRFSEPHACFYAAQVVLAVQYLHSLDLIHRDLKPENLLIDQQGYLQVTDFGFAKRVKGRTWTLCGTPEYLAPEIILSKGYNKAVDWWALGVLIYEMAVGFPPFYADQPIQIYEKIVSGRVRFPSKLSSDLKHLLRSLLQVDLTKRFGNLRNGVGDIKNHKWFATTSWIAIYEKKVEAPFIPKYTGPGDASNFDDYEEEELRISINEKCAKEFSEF

`CN(C(=O)CN1CCOCC1)c1ccc2sc3c(-c4cccc5c(=O)cc(N6CC7CCC(C6)O7)oc45)cccc3c2c1` [NU5455]: the inhibition at 1 µM was -0.2%.
